The results in this text go back to ChEMBL document CHEMBL1158642, “Syntheses and biological evaluation of ring-C modified colchicine analogs” (Bioorg Med Chem Lett, 2010).

Activity calls are given as the source filed them. The rule behind the calls is not given here.

What is called IC50 is the concentration at which inhibition is half-maximal. A lower IC50 goes with inhibition by little substance.

One experiment has as its system MCF7. Description: Cytotoxicity against human MCF7 cells after 72 hrs by crystal violet staining. It counts as functional, cell-based. The following applies: MCF7, 72 h.
The next experiment concerns PC-3. Description: Cytotoxicity against human PC3 cells after 72 hrs by crystal violet staining. To be noted: PC-3, 72 h. Type of experiment: functional, cell-based.
Experiment [1] can be described thus: Inhibition of microtubule polymerization at 10 uM after 10 mins.

Consider `CCc1cccc(N2O[C@H]3C(=O)C(OC)=C[C@H]2C2=C3[C@@H](NC(C)=O)CCc3cc(OC)c(OC)c(OC)c32)n1`, for which the IC50 in the experiment on MCF7 amounted to 0.022 µM; with PC-3, 0.023 µM.

Consider `COC1=C[C@H]2C3=C([C@@H](ON2c2cccc(C)n2)C1=O)[C@@H](NC(C)=O)CCc1cc(OC)c(OC)c(OC)c13`, for which, in experiment [1], the outcome was Active. Moreover, the results for the IC50 in the experiment with MCF7 and with PC-3 were 0.02 µM and 0.025 µM, respectively.

With `COc1cc2c(c(OC)c1OC)-c1ccc(OC)c(=O)cc1[C@@H](NC(C)=O)CC2` [COLCHICINE], the outcome in experiment [1] was Active. For the same compound, in the experiment on PC-3, the IC50 came to 0.02 µM.

On to `COC1=C[C@H]2C3=C([C@@H](ON2c2cc(C)ccn2)C1=O)[C@@H](NC(C)=O)CCc1cc(OC)c(OC)c(OC)c13`, for which the values for the IC50 in the experiment on MCF7 and with PC-3 were 0.01 µM and 0.014 µM, respectively.

`COC1=C[C@@H]2ON(c3cnoc3C)[C@@H](C1=O)C1=C2c2c(cc(OC)c(OC)c2OC)CC[C@@H]1NC(C)=O`: the outcome in experiment [1] was inactive. The IC50 in the experiment on MCF7 turned out to be 0.25 µM; in the experiment with PC-3, 0.245 µM.

Regarding `COC1=C[C@H]2C3=C([C@@H](ON2c2cc(C)on2)C1=O)[C@@H](NC(C)=O)CCc1cc(OC)c(OC)c(OC)c13`, in experiment [1], the outcome was Active. Moreover, the values for the IC50 in the experiment with MCF7 and with PC-3 were 0.19 µM and 0.25 µM, respectively.

For `COC1=C[C@H]2C3=C([C@@H](ON2c2ccccn2)C1=O)[C@@H](NC(C)=O)CCc1cc(OC)c(OC)c(OC)c13`, the result in experiment [1] was Active. Also, the IC50 was 0.017 µM with MCF7 and 0.028 µM in the experiment with PC-3.
